The record followed here is US20260274892A1, “MACROCYCLIC BROAD SPECTRUM ANTIBIOTICS” (RQx Pharmaceuticals, Inc., priority 2017, published 2026).

For the test, the system named is Escherichia coli ATCC 25922. Put plainly: Minimum inhibitory concentration (MIC), CLSI broth micro-dilution, E. coli. The class given is cell-based. Particulars: Escherichia coli. An outline of the steps:
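Colonies grown 20 h at 35° C on Trypticase Soy agar (MRSA) or Luria agar (E. coli) were suspended in cation-adjusted Mueller Hinton broth with 0.002% Tween-80. Suspensions were added at OD600 0.0005 to 10-point twofold compound dilutions, then incubated 22 h at 35° C.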

The mark [1] stands for this setting: ATCC25922, 22 h, Table 6, cation adjusted Mueller Hinton Broth + 0.002% Tween-80, 35° C.
[2] abbreviates: ATCC25922, 22 h, Table 7, cation adjusted Mueller Hinton Broth + 0.002% Tween-80, 35° C.
Setting [3] is: ATCC25922, Table 7, cation adjusted Mueller Hinton Broth + 0.002% Tween-80, 35° C., 22 hours.

On to `Cc1nc(-c2ccc(C(C)(C)C)cc2)cc(OCC(N)=O)c1C(=O)N[C@@H](CCN)C(=O)N(C)[C@@H]1C(=O)N[C@@H](C)C(=O)N[C@H](C(=O)NCC#N)Cc2ccc(OCCN)c(c2)-c2cc1ccc2OCCN` (racemic) [Compound 551, rac-(8S,11S,14S)-3,18-bis(2-aminoethoxy)-N-(cyanomethyl)-11-methyl-14-[methyl-[rac-(2S)-4-amino-2-[[4-(2-amino-2-oxo-ethoxy)-6-(4-tert-butylphenyl)-2-methyl-pyridine-3-carbonyl]amino]butanoyl]amino]-10,13-dioxo-9,12-diazatricyclo[13.3.1.12,6]icosa-1(18),2(20),3,5,15(19),16-hexaene-8-carboxamide], for which the MIC under setting [1] is 1 µM.
For `C[C@@H]1NC(=O)[C@@H](N(C)C(=O)[C@H](CCN)NC(=O)c2c(N)cc(-c3ccc(C(C)(C)C)cc3)nc2Cl)c2ccc(OCCN)c(c2)-c2cc(ccc2OCCN)C[C@@H](C(=O)NCC#N)NC1=O` (racemic) [Compound 554, rac-(8S,11S,14S)-3,18-bis(2-aminoethoxy)-N-(cyanomethyl)-11-methyl-14-[methyl-[rac-(2S)-4-amino-2-[[4-amino-6-(4-tert-butylphenyl)-2-chloro-pyridine-3-carbonyl]amino]butanoyl]amino]-10,13-dioxo-9,12-diazatricyclo[13.3.1.12,6]icosa-1(18),2(20),3,5,15(19),16-hexaene-8-carboxamide], under setting [1], the MIC worked out at 0.094 µM.
The same measure, in the same setting: for `Cc1nc(-c2ccc(N3[C@H](C)CCC[C@@H]3C)cc2)nc(C)c1C(=O)N[C@@H](CCN)C(=O)N(C)[C@@H]1C(=O)N[C@@H](C)C(=O)N[C@H](C(=O)NCC#N)Cc2ccc(OCCN)c(c2)-c2cc1ccc2OCCN` (racemic) [Compound 555, rac-(8S,11S,14S)-3,18-bis(2-aminoethoxy)-N-(cyanomethyl)-11-methyl-14-[methyl-[rac-(2S)-4-amino-2-[[4,6-dimethyl-2-[4-[rac-(2R,6S)-2,6-dimethyl-1-piperidyl]phenyl]pyrimidine-5-carbonyl]amino]butanoyl]amino]-10,13-dioxo-9,12-diazatricyclo[13.3.1.12,6]icosa-1(18),2(20),3,5,15(19),16-hexaene-8-carboxamide] the value was 0.19 µM.
In the case of `Cc1nc(-c2ccc(C(C)(C)C)cc2)cc(N)c1C(=O)N[C@@H](CCN)C(=O)N(C)[C@@H]1C(=O)N[C@@H](C)C(=O)N[C@H](C(=O)NCC#N)Cc2ccc(OCCN)c(c2)-c2cc1ccc2O` (racemic) [Compound 557, rac-(8S,11S,14S)-3-(2-aminoethoxy)-N-(cyanomethyl)-18-hydroxy-11-methyl-14-[methyl-[rac-(2S)-4-amino-2-[[4-amino-6-(4-tert-butylphenyl)-2-methyl-pyridine-3-carbonyl]amino]butanoyl]amino]-10,13-dioxo-9,12-diazatricyclo[13.3.1.12,6]icosa-1(18),2(20),3,5,15(19),16-hexaene-8-carboxamide], the MIC under setting [1] stood at 0.25 µM.
For `Cc1nc(-c2ccc(C(C)(C)C)cc2)nc(C)c1C(=O)N[C@@H](CCN)C(=O)N(C)[C@@H]1C(=O)N[C@@H](C)C(=O)N[C@H](C(=O)NCC#N)Cc2cc(OCCN)c(O)c(c2)-c2cc1ccc2O` (racemic) [Compound 561, (4S,7S,10S)-10-((S)-4-amino-2-(2-(4-(tert-butyl)phenyl)-4,6-dimethylpyrimidine-5-carboxamido)-N-methylbutanamido)-25-(2-aminoethoxy)-N-(cyanomethyl)-16,26-dihydroxy-7-methyl-6,9-dioxo-5,8-diaza-1,2(1,3)-dibenzenacyclodecaphane-4-carboxamide], the MIC under setting [2] came out at 0.75 µM.
Regarding `Cc1nc(-c2ccc(C(C)(C)C)cc2)nc(C)c1C(=O)N[C@@H](CCN)C(=O)N(C)[C@@H]1C(=O)N[C@@H](C)C(=O)N[C@H](C(=O)NCC#N)Cc2cc(OCCN)c(O)c(c2)-c2cc1ccc2OCCN` (racemic) [Compound 562, (4S,7S,10S)-10-((S)-4-amino-2-(2-(4-(tert-butyl)phenyl)-4,6-dimethylpyrimidine-5-carboxamido)-N-methylbutanamido)-16,25-bis(2-aminoethoxy)-N-(cyanomethyl)-26-hydroxy-7-methyl-6,9-dioxo-5,8-diaza-1,2(1,3)-dibenzenacyclodecaphane-4-carboxamide], the minimal inhibitory concentration (MIC) under setting [3] was 0.094 µM.
Regarding `Cc1nc(-c2ccc(C(C)(C)C)cc2)nc(C)c1C(=O)N[C@@H](CCN)C(=O)N(C)[C@@H]1C(=O)N[C@@H](C)C(=O)N[C@H](C(=O)O)Cc2cc(OCCN)c(O)c(c2)-c2cc1ccc2OCCN` (racemic) [Compound 563, rac-(8S,11S,14S)-4,18-bis(2-aminoethoxy)-3-hydroxy-11-methyl-14-[methyl-[rac-(2S)-4-amino-2-[[2-(4-tert-butylphenyl)-4,6-dimethyl-pyrimidine-5-carbonyl]amino]butanoyl]amino]-10,13-dioxo-9,12-diazatricyclo [13.3.1.12,6]icosa-1(18),2,4,6(20),15(19), 16-hexaene-8-carboxylic acid], the MIC under setting [3] stood at 0.25 µM.
On to `Cc1nc(-c2ccc(OC3CCCCC3)cc2)cc(N)c1C(=O)N[C@@H](CCN)C(=O)N(C)[C@@H]1C(=O)N[C@@H](C)C(=O)N[C@H](C(=O)NCC#N)Cc2ccc(OCCCN)c(c2)-c2cc1ccc2OCCCN` (racemic) [Compound 565, rac-(8S,11S,14S)-3,18-bis(3-aminopropoxy)-N-(cyanomethyl)-11-methyl-14-[methyl-[rac-(2S)-4-amino-2-[[4-amino-6-[4-(cyclohexoxy)phenyl]-2-methyl-pyridine-3-carbonyl]amino]butanoyl]amino]-10,13-dioxo-9,12-diazatricyclo[13.3.1.12,6]icosa-1(18),2(20),3,5,15(19),16-hexaene-8-carboxamide], for which, under setting [2], the MIC was 0.13 µM.
On the same count and under the same terms, for `Cc1nc(-c2ccc(OC3CCCCC3)cc2)nc(C)c1C(=O)N[C@@H](CCN)C(=O)N(C)[C@@H]1C(=O)N[C@@H](C)C(=O)N[C@H](C(=O)NCC#N)Cc2ccc(OC[C@H](O)CN)c(c2)-c2cc1ccc2OC[C@H](O)CN` (racemic) [Compound 568, rac-(8S,11S,14S)-N-(cyanomethyl)-11-methyl-14-[methyl-[rac-(2S)-4-amino-2-[[2-[4-(cyclohexoxy)phenyl]-4,6-dimethyl-pyrimidine-5-carbonyl]amino]butanoyl]amino]-10,13-dioxo-3,18-bis[rac-(2R)-3-amino-2-hydroxy-propoxy]-9,12-diazatricyclo[13.3.1.12,6]icosa-1(18),2(20),3,5,15(19),16-hexaene-8-carboxamide] the value was 0.063 µM.
For `Cc1nc(-c2ccc(OC(C)C)cc2)nc(C)c1C(=O)N[C@@H](CCN)C(=O)N(C)[C@@H]1C(=O)N[C@@H](C)C(=O)N[C@H](C(=O)NCC#N)Cc2ccc(OC[C@H](O)CN)c(c2)-c2cc1ccc2OC[C@H](O)CN` (racemic) [Compound 569, rac-(8S,11S,14S)-N-(cyanomethyl)-11-methyl-14-[methyl-[rac-(2S)-4-amino-2-[[2-(4-isopropoxyphenyl)-4,6-dimethyl-pyrimidine-5-carbonyl]amino]butanoyl]amino]-10,13-dioxo-3,18-bis[rac-(2R)-3-amino-2-hydroxy-propoxy]-9,12-diazatricyclo[13.3.1.12,6]icosa-1(18),2(20),3,5,15(19),16-hexaene-8-carboxamide], the MIC under setting [3] is 0.5 µM.
Take `Cc1nc(-c2ccc(C(C)(C)C)cc2)nc(C)c1C(=O)N[C@@H](CCN)C(=O)N(C)[C@@H]1C(=O)N[C@@H](C)C(=O)N[C@H](C(=O)NCC#N)Cc2ccc(OCCN)c(c2)-c2cc1ccc2OC[C@H](O)CN` (racemic) [Compound 571, rac-(8S,11S,14S)-3-(2-aminoethoxy)-N-(cyanomethyl)-11-methyl-14-[methyl-[rac-(2S)-4-amino-2-[[2-(4-tert-butylphenyl)-4,6-dimethyl-pyrimidine-5-carbonyl]amino]butanoyl]amino]-10,13-dioxo-18-[rac-(2R)-3-amino-2-hydroxy-propoxy]-9,12-diazatricyclo[13.3.1.12,6]icosa-1(18),2(20),3,5,15(19),16-hexaene-8-carboxamide]: the minimal inhibitory concentration (MIC) under setting [2] came to 0.094 µM.
For `Cc1nc(-c2ccc(C(C)(C)C)cc2)nc(C)c1C(=O)N[C@@H](CNS(N)(=O)=O)C(=O)N(C)[C@@H]1C(=O)N[C@@H](C)C(=O)N[C@H](C(=O)NCC#N)Cc2ccc(OCCN)c(c2)-c2cc1ccc2OCCN` (racemic) [Compound 572, rac-(8S,11S,14S)-3,18-bis(2-aminoethoxy)-N-(cyanomethyl)-11-methyl-14-[methyl-[rac-(2S)-2-[[2-(4-tert-butylphenyl)-4,6-dimethyl-pyrimidine-5-carbonyl]amino]-3-(sulfamoylamino)propanoyl]amino]-10,13-dioxo-9,12-diazatricyclo[13.3.1.12,6]icosa-1(18),2(20),3,5,15(19),16-hexaene-8-carboxamide], under setting [2], the MIC was determined as 0.28 µM.
For the compound `Cc1nc(-c2ccc(OC3CCCCC3)cc2)nc(C)c1C(=O)N[C@@H](CNS(N)(=O)=O)C(=O)N[C@@H]1C(=O)N[C@@H](C)C(=O)N[C@H](C(=O)NCC#N)Cc2ccc(OCCN)c(c2)-c2cc1ccc2OCCN` (racemic) [Compound 573, rac-(8S,11S,14S)-3,18-bis(2-aminoethoxy)-N-(cyanomethyl)-11-methyl-10,13-dioxo-14-[[rac-(2S)-2-[[2-[4-(cyclohexoxy)phenyl]-4,6-dimethyl-pyrimidine-5-carbonyl]amino]-3-(sulfamoylamino)propanoyl]amino]-9,12-diazatricyclo[13.3.1.12,6]icosa-1(18),2(20),3,5,15(19),16-hexaene-8-carboxamide], the MIC under setting [2] was determined as 0.5 µM.
